Laboratory results as given in ChEMBL document CHEMBL3132769, “Fragment growing to retain or alter the selectivity of anchored kinase hinge-binding fragments” (Medchemcomm, 2014).

Assays:
[1] = molecular target: Insulin receptor (Homo sapiens) (UniProt P06213); test: Inhibition of human INSR catalytic domain expressed in baculovirus assessed as substrate phosphorylation using fluorescence-labelled peptides as substrate at 0.06 uM after 90 mins by microfluidic peptide phosphorylation assay
[2] = molecular target: MAP kinase p38 (Homo sapiens) (UniProt O15264+Q15759+Q16539+P53778); test: Inhibition of human full length p38 beta2 expressed in Escherichia coli cell assessed as substrate phosphorylation using fluorescence-labelled peptides as substrate at 0.2 uM after 90 mins by microfluidic peptide phosphorylation assay
[3] = molecular target: T1, Serine/threonine-protein kinase D3 (Homo sapiens) (UniProt O94806); test: Inhibition of human full length PKD3 expressed in baculovirus assessed as substrate phosphorylation using fluorescence-labelled peptides as substrate at 95 uM after 90 mins by microfluidic peptide phosphorylation assay
T1 sequence (whole entry): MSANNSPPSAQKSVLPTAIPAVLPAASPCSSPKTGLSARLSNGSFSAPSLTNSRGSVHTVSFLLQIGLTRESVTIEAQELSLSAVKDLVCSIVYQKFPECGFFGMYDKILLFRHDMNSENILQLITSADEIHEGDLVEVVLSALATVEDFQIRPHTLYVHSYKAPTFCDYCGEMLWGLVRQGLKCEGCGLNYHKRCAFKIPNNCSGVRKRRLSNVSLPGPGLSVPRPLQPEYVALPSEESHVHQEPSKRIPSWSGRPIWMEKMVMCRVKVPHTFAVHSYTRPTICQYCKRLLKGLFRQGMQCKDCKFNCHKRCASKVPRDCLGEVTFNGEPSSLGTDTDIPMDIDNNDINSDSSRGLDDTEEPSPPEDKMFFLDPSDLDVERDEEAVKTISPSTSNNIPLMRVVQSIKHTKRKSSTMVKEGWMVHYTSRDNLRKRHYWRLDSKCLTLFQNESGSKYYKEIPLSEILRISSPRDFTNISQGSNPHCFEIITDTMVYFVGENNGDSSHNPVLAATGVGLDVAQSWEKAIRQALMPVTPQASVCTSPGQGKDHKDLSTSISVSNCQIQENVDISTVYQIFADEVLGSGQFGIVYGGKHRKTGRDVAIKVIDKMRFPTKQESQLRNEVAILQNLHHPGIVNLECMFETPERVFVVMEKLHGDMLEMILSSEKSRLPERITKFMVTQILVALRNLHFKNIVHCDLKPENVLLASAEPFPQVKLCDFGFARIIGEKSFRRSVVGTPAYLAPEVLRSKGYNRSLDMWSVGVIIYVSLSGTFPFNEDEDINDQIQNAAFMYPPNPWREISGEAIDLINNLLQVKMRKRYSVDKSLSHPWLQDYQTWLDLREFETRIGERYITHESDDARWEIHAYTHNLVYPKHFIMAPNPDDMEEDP

[4] = molecular target: T2, Serine/threonine-protein kinase D2 (Homo sapiens) (UniProt Q9BZL6); test: Inhibition of human full length PKD2 expressed in baculovirus assessed as substrate phosphorylation using fluorescence-labelled peptides as substrate at 8 uM after 90 mins by microfluidic peptide phosphorylation assay
T2 sequence (whole entry): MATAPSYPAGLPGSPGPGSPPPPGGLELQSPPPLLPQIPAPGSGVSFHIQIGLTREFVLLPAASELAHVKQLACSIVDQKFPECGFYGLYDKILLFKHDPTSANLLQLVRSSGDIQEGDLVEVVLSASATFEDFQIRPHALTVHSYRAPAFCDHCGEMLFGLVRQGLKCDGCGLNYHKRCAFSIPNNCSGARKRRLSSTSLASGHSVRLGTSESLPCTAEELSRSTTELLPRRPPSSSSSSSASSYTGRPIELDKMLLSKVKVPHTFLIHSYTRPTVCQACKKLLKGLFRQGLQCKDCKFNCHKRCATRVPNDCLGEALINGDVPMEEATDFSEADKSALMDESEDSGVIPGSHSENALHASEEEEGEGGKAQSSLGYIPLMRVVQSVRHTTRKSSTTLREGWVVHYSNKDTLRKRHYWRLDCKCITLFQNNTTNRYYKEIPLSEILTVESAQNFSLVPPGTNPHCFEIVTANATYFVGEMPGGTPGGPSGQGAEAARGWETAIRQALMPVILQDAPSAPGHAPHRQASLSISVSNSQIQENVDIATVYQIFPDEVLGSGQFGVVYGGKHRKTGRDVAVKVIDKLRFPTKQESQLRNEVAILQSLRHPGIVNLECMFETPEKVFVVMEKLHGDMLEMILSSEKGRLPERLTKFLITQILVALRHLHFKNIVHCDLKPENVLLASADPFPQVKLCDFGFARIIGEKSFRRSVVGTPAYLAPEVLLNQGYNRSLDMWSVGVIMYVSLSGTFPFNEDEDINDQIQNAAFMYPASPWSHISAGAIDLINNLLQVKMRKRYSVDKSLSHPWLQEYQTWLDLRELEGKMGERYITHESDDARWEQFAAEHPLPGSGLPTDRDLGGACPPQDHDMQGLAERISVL

[5] = molecular target: T3, MAP kinase-activated protein kinase 5 (Homo sapiens) (UniProt Q8IW41); test: Inhibition of human full length PRAK expressed in baculovirus assessed as substrate phosphorylation using fluorescence-labelled peptides as substrate at 1000 uM after 90 mins by microfluidic peptide phosphorylation assay
T3 sequence (whole entry): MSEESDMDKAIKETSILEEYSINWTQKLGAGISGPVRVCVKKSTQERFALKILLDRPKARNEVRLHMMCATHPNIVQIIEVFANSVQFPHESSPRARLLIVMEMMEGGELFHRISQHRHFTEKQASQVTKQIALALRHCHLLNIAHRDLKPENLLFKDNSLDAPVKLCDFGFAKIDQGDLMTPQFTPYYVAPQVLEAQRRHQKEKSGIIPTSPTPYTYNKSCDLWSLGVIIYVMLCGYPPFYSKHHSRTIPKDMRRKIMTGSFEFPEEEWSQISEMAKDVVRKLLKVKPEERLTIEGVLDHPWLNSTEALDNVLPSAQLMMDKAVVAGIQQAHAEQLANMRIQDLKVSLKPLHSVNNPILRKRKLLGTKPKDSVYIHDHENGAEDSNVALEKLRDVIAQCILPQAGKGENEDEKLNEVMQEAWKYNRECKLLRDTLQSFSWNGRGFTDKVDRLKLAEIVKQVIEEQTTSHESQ

[6] = molecular target: Mitogen-activated protein kinase 3 (Homo sapiens) (UniProt P27361); test: Inhibition of human full length ERK1 expressed in Escherichia coli cell assessed as substrate phosphorylation using fluorescence-labelled peptides as substrate at 1000 uM after 90 mins by microfluidic peptide phosphorylation assay
Chain of Mitogen-activated protein kinase 3 (Homo sapiens) (P27361 whole entry): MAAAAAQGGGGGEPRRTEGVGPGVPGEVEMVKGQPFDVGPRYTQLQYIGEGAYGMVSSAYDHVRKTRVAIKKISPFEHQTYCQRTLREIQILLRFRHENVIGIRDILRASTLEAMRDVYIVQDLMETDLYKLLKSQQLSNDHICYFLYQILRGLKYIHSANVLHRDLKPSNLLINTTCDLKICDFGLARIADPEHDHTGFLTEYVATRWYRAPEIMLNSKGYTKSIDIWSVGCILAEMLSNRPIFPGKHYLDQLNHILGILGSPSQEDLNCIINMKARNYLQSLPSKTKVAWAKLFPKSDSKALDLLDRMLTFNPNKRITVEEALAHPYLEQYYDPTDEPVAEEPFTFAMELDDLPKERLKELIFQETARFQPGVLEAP

Structure (SMILES): NC1(Cc2ccc(Cl)cc2)CCN(c2ncnc3[nH]ccc23)CC1
- inhibition [1]: 6%

Structure (SMILES): Clc1ccc(C2(c3ccc(-c4ncnc5[nH]cnc45)cc3)CCNCC2)cc1
- inhibition [2]: 2.5%

Structure (SMILES): NCCc1ccc(-c2ncnc3[nH]cnc23)cc1
- inhibition [3]: 61.5%

Structure (SMILES): NCC1CCN(c2ncnc3[nH]ccc23)CC1
- inhibition [4]: 28.5%

Structure (SMILES): c1cnc2[nH]ccc2c1
- inhibition [5]: 77%
- inhibition [6]: 36%
